pIC50: −log10 of the molar value. Blank lines part the entries; values can stand above or below the molecule they belong to.
Assays:
PTGR2 [1] = biological target: T1, PTGR2 (Homo sapiens, UniProt Q8N8N7); assay: Gel-based competitor blockade of FFF 8 labeling of recombinantly expressed FLAG-tagged PTGR2 in HEK293T cells; format: binding
Protocol: (§1) For gel-based experiments, cells were grown in 6-well plates to ˜90% confluence at the time of treatment. Cells were carefully washed with Dulbecco's phosphate buffered saline (DPBS) and replenished with fresh serum-free media containing indicated FFF probe, and, if applicable, competitors or DMSO vehicle (1 mL). Following incubation at 37° C. for 30 min, cells were directly exposed to 365 nm light for 10 min. For no UV experiments, cells were incubated at 4° C. for 10 min under ambient light. For MS-based experiments, cell labeling was performed in a similar manner as described above. Modifications to this protocol included using isotopically ‘light’ and ‘heavy’ SILAC cells that were grown to near complete confluence prior to treatment in 10 cm plates. […]
(§2) Cells pellets were lysed in cold DPBS (100-500 µL) using a Branson Sonifier probe sonicator (10 pulses, 30% duty cycle, output setting=4). […] Protein concentration was determined using the DC Protein Assay (Bio-Rad) and absorbance read using a Tecan, Infinite F500 plate reader following manufacturer's instructions. […]
(§3) Proteomes from treated cells were diluted to 1 mg/mL. […] Proteins (25 µg total protein loaded per gel lane) were resolved using SDS-PAGE (10% acrylamide) and visualized by in-gel fluorescence on a Hitachi FMBIO-II or a Bio-Rad ChemiDoc™ MP flatbed fluorescence scanner. […]

PPARγ = biological target: T2, PPARγ (Homo sapiens, UniProt P37231); assay: GAL4-PPARγ luciferase reporter assay with empty control vector in HEK293T cells; format: cell-based; conditions: GAL4-PPARγ luciferase reporter and empty control vector
T2 construct: expressed in transfected cells; host or cells: HEK293T
T2 sequence (P37231 238-503 limits assumed): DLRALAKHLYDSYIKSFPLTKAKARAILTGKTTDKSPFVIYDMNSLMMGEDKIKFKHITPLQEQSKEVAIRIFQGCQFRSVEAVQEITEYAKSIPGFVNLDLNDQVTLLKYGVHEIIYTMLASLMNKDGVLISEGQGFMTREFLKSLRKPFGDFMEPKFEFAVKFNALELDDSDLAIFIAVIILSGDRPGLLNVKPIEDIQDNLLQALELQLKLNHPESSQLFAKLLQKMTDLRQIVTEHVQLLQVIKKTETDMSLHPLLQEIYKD
Protocol: (§4) HEK293T cells were transiently co-transfected using Polyethylenimine (Sigma) with a UAS-Luciferase reporter and a vector expressing the heterologous GAL4 DNA binding domain (DBD) or a GAL4 DNA binding domain::PPARγ ligand binding domain (LBD) chimeric protein, and full-length PTGR2. 24 hr after transfection, cells were treated either with vehicle (DMSO), 15k-PGE2 (20 μM), or fragment compounds. Rosiglitazone (2 μM), a synthetic PPARγ ligand, was used as control. 16 hr after incubation, cells were lysed in Cell Culture Lysis Reagent (Promega) and luciferase activity measured using the Luciferase Assay System (Promega).

PTGR2 [2] = biological target: T1, PTGR2; assay: In vitro LCMS-based activity assay for PTGR2 (15-keto-PGE2 reductase activity); format: biochemical
Protocol: Aliquots (1 μL) of test compounds dissolved in DMSO were transferred to 1.5 mL eppendorf tubes followed by addition of recombinant human PTGR2 (44 μL, 200 nM final concentration) in freshly prepared reaction buffer (Tris Buffer, 1 mM EDTA, 50 μM TCEP, 300 μM NADPH). The resulting mixture was vortexed and then incubated at 37° C. for 20 min. Next, a 5 μL solution of 15-keto-PGE2 substrate (20 μM final concentration) in reaction buffer was added and the reaction was allowed to proceed for 30 min at 37° C. Reactions were quenched by the addition of 0.5% AcOH in ethyl acetate (800 μL), water (300 μL) and 100 μL of internal standard PGE2-d4 (30 pmol/sample) dissolved in 1:1 methanol/water. Phases were separated by centrifugation and the organic layer was collected and dried under a stream of N2, then stored at −80° C. until analysis. Directly prior to analysis, samples were reconstituted in 100 μL of MeCN:H2O (1:1, v/v) and analyzed by LC/MS/MS. All conditions were performed in triplicate and repeated at least three independent times.
The following MS parameters were used to measure the indicated metabolites by MRM (precursor ion, product ion, collision energy, polarity): PGE2-d4 (355, 275, 18), 13,14-dihydro-15-keto-PGE2 (351, 333, 18) and 15-keto-PGE2 (349, 161, 20). 15-keto-PGE2 and 13,14-dihydro-15-keto-PGE2 levels were quantified by determining peak areas in relation to internal standard PGE2-d4. Non-deuterated 15-keto-PGE2 and 13,14-dihydro-15-keto-PGE2 standards were used to confirm retention time and fragmentation.
All data fitting and statistical analysis performed using GraphPad Prism version 6.00 for Windows, GraphPad Software, La Jolla Calif. USA, www.graphpad.com. Statistical values including the exact n and statistical significance are also reported. Probe binding blockade and PTGR2 inhibition curves are plotted as mean±SD (n=3 or 4 per group) for a representative biological replicate using a variable slope (four parameter) non-linear fit. Gene expression data are presented as mean±SD (n=3 per group). HSC5 metabolite data are shown as mean±SD (n=3 per group). Statistical significance was defined as P<0.05 and determined by 2-tailed Student t tests, or two-way ANOVA with Bonferroni's post-tests.

PTGR2 [3] = biological target: T1, PTGR2; assay: PPARγ luciferase reporter assay in PTGR2-transfected HEK293T cells (15-keto-PGE2-dependent); format: cell-based; conditions: cells recombinantly expressing PTGR2
Protocol: as §4

PTGR2 [4] = biological target: T1, PTGR2; conditions: only reported inhibitor of PTGR2; read-out: in vitro IC50 (PTGR2); cited from earlier work
[5] = tested on: proteins in HEK293T cells; assay: Gel-based profiling of FFF probe-protein labeling in cells; format: binding, human; conditions: 20 μM, 30 min, UV
Protocol: as §1, §2, §3

T1 sequence (Q8N8N7 whole entry): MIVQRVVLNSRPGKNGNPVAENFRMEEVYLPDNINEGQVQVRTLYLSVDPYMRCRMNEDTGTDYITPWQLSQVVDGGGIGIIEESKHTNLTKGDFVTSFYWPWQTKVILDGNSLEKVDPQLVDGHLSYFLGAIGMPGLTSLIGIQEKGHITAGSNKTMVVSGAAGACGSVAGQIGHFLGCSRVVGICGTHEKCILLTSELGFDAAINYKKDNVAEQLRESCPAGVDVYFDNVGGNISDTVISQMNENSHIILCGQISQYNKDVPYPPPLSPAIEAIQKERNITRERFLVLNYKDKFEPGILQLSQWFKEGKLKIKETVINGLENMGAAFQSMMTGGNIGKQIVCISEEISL

competitor blockade of FFF 8 labeling of recombinant PTGR2 (gel) (PTGR2 [1]): did not affect | direct modulation of PPARγ transcriptional activity (PPARγ): Neither 22 nor 23 directly modulated | effect on 15-keto-PGE2 reductase (catalytic) activity of recombinant PTGR2 (PTGR2 [2]): did not affect | 15-keto-PGE2-dependent PPARγ transcriptional activity (PTGR2 [3]): no effect
SMILES: COc1ccccc1C1CCN(S(=O)(=O)Cc2ccccc2)CC1 [Compound 23, 1-(Benzylsulfonyl)-4-(2-methoxyphenyl)piperidine]

SMILES: COc1ccc2c(c1)c(CC(=O)O)c(C)n2C(=O)c1ccc(Cl)cc1 [indomethacin]
pIC50 (PTGR2 [4]): ~3.70

SMILES: C#CCCC1(CCC(=O)NC)N=N1 [probe 1, 3-(3-(But-3-yn-1-yl)-3H-diazirin-3-yl)-N-methylpropanamide]
protein labeling in HEK293T cells (in-gel fluorescence) [5]: much less protein labeling

— US11535597B2, “Photoreactive ligands and uses thereof” (The Scripps Research Institute, priority 2017, dated 2022)
